Source: paper PMC10766610, “DCAF1-based PROTACs with activity against clinically validated targets overcoming intrinsic- and acquired-degrader resistance” (Nature Communications, 2024)
Read-outs that look alike come from different tables or passages of the source. One block for each compound: values may come before it.

How the values were obtained:
BRD9 [1] = molecular target: T1, BRD9 (Homo sapiens, UniProt Q9H8M2); experiment: Immunoblot of BRD9 in HEK293 BRD9-HiBiT/FF/CAS9 cells; assay type: cell-based; parameters: host or cells: HEK293/BRD9-HiBiT knock-in; clone and BRD9-HiBiT/CAS9/FF clone; conditions: 1000 nM, 6 h
T1 sequence (Q9H8M2 1-597): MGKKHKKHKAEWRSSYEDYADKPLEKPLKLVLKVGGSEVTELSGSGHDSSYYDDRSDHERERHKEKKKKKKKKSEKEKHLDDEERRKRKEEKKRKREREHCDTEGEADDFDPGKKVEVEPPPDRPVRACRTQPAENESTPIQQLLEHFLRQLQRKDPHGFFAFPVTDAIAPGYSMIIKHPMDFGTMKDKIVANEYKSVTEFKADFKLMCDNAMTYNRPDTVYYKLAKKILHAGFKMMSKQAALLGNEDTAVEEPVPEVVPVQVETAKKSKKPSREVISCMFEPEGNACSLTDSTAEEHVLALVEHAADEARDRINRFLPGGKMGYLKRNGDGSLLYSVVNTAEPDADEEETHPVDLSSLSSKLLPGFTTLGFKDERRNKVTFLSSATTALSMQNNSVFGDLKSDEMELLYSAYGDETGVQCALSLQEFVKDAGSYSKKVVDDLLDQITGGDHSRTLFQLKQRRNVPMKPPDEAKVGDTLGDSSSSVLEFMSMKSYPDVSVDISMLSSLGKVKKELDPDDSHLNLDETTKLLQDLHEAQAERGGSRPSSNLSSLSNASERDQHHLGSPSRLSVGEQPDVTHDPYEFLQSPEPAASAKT
Protocol: (§1) Whole cell lysates for immunoblotting were prepared by pelleting cells at 4 °C (300 g) for 3 min. Cell pellets were then washed 1x with PBS and resuspended in RIPA lysis buffer (VWR, cat # 97063-270) supplemented with protease (Thermo Scientific, cat # A32955) and phosphatase (Thermo Scientific, cat # A32957) inhibitor tablets. Lysates were clarified at 16,000 × g for 15 min at 4 °C prior to quantification by Lowry assay (Bio-Rad cat # 5000113 and cat # 5000114). Whole-cell lysates were loaded into 4–20% Criterion TGX Precast 18 well gels (Bio-Rad, cat # 5671094) and separated by electrophoreses at 120 V for 1 h. The gels were transferred to a nitrocellulose membrane using the Trans-Blot Turbo (Bio-Rad) for 7 min and then blocked for 1 h at room temperature in Odyssey blocking buffer (LICOR Biosciences, cat # 927-50000). Membranes were probed with the appropriate primary antibodies (diluted 1:1000) overnight at 4 °C in 20% Odyssey blocking buffer in 1x TBST. Membranes were washed three times with 1x TBST (5 min per wash), and then incubated with IRDye goat anti-mouse (LICOR, cat # 926-32210) or goat anti-rabbit (LICOR, cat # 926-32211) secondary antibody diluted 1:10,000 in 20% Odyssey blocking buffer for 1 h at room temperature. After three 5-min washes with 1x TBST, the immunoblots were visualized using the ODYSSEY Infrared Imaging System (LICOR). Alternatively, SDS-PAGE resolved proteins were transferred to a PVDF membrane using a wet blotting system (Invitrogen). Membranes were blocked in 5% Milk-PBS-Tween 20 for 1 h and incubated with primary antibody over night at 4 °C. Secondary antibodies (secondary antibody: anti-rabbit, goat pAb to Rb-IgG (Abcam, #7090); secondary antibody: anti-mouse, sheep IgG HRP-linked (GE healthcare, #NA931V)) were incubated for 1 h at room temperature (RT) before blots were developed on film using the detection kit SuperSignal West Femto Maximum Sensitivity Substrate (Thermo Fisher, #34096).

BRD9 [2] = molecular target: T1, BRD9; experiment: Rescue of DBr-1 mediated BRD9 degradation by co-treatment, BRD9-HiBiT HEK293 cells; assay type: cell-based; parameters: host or cells: HEK293/BRD9-HiBiT knock-in; clone and BRD9-HiBiT/CAS9/FF clone; conditions: (13) 1 µM, OICR8268 10 µM, BI-9564 10 µM
Protocol: Supplementary figure 4. Competition experiments with DBr-1 and DBr-1-N […]
a) BRD9-HiBiT signal detection of samples pretreated with either DMSO, 10µM OICR-8268, 1µM […]
Data represents average ± standard deviation from n=3 replicates. DC50 values and […]
maximal observed degradation are shown below. […]
b) Cell titer Glow assay of BRD9 HiBiT cells. Cells pretreated with either DMSO, 10µM OICR-8268, […]
Data represents average ± standard deviation from n=3 replicates.
(§2) Source data are provided as a Source Data file

BTK [3] = molecular target: T2, BTK (Homo sapiens, UniProt Q06187); experiment: Immunoblot of BTK in TMD8 WT and CRBN (CBt) resistant cells; assay type: cell-based; parameters: performed with full-length BTK and endogenous DCAF1; expressed in transfected cells; host or cells: TMD8 cells, lentiviral, blasticidin-selected (TMD8 BTK-GFP/mCh); conditions: 24 h; 0.1 µM CBt, 1 µM DBt-10
Protocol: as §1, with “Alternatively, SDS-PAGE resolved proteins were transferred to a PVDF membrane using a wet blotting system (Invitrogen). Membranes were blocked in 5% Milk-PBS-Tween 20 for 1 h and incubated with primary antibody over night at 4 °C. Secondary antibodies (secondary antibody: anti-rabbit, goat pAb to Rb-IgG (Abcam, #7090); secondary antibody: anti-mouse, sheep IgG HRP-linked (GE healthcare, #NA931V)) were incubated for 1 h at room temperature (RT) before blots were developed on film using the detection kit SuperSignal West Femto Maximum Sensitivity Substrate (Thermo Fisher, #34096).” left out

BRD7 = molecular target: T3, BRD7 (Homo sapiens, UniProt Q9NPI1); experiment: BRD7-HiBiT protein abundance luminescence assay in HEK293 cells
T3 sequence (Q9NPI1 1-651): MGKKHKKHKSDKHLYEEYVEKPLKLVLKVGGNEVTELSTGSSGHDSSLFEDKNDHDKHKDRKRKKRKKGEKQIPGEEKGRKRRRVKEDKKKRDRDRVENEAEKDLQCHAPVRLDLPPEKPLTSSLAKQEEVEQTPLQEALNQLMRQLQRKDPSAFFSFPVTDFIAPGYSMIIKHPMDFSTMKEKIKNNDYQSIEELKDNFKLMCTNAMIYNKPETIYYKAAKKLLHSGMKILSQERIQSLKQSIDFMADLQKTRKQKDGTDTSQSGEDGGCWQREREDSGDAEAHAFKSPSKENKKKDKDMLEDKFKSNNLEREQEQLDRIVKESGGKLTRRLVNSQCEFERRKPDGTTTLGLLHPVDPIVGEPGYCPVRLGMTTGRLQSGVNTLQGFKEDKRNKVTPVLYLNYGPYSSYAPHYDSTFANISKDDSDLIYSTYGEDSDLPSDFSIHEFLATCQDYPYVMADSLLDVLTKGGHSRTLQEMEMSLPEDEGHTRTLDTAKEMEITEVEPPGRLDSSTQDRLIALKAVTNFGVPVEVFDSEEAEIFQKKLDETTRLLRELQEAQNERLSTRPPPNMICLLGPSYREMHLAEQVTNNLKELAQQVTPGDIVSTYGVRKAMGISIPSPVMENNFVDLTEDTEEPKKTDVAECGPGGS
From the text: HEK293/BRD9-HiBiT pools (PROMEGA # CS3023120) and HEK293/BRD7-HiBiT pools (PROMEGA # CS3023124) were purchased from Promega. We performed clonal selection for HEK293/BRD9-HiBiT cell line using single-cell sorting and screening for HiBiT expression using Nano-Glo HiBiT Lytic Detection System (Promega # N3030). The HEK293/BRD9-HiBiT clone and HEK293/BRD7-HiBiT pool to perform standard HiBiT assays.

BRD9 [4] = molecular target: T1, BRD9; experiment: Capillary western of BRD9 in 768-O cells; assay type: cell-based; conditions: 768-O cells lacking VHL expression
Protocol: Protein peaks were analyzed using Compass for Simple Western version 5.0.1 (ProteinSimple), area under the curve for both α-tubulin ([…]) and BRD9 (90 kDa) per capillary was extracted and BRD9 area was normalized to α-tubulin area on a per-capillary basis before each sample was normalized to the DMSO for each run of three triplicates.

BTK [5] = molecular target: T2, BTK; experiment: BTK-GFP degradation by flow cytometry in TMD8 BTK-GFP/mCh cells; assay type: cell-based; parameters: performed with full-length BTK and endogenous DCAF1; expressed in transfected cells; host or cells: TMD8 cells, lentiviral, blasticidin-selected (TMD8 BTK-GFP/mCh); conditions: TMD8 BTK-GFP/mCh, 24 h; read-out: DC50 BTK-Degradation
Protocol: The bicistronic pLenti6 BTK-GFP-chysel-mCHERRY expression vector was cloned as described[92] using Gateway cloning with a pENTR-BTK plasmid lacking a STOP codon. TMD8 cells were then infected with lentiviral particles from this vector as described above and stably transfected cells were selected with blasticidin at a concentration of 10 μg/mL referred to as TMD8 BTK-GFP/mCh cells.
(§3) For flow cytometry measurements, 25,000 exponentially growing TMD8 BTK-GFP/mCh cells were plated in 100 μL of each well of a 96-well plate and grown for 24 h. Cells were then dosed with corresponding compounds and doses from 10 mM DMSO stock for 24 h, after which GFP and mCherry fluorescence was read with a Beckmann Coulter Cytoflex. For competition experiment, both compounds were added at the same time and dosed for 24 h. Cells were gated based on Forward & Side Scatter and selection for Single cells using SSC-A vs. SSC-H. Further, the population of viable cells was defined by the forward & side-scatter characteristics of DMSO-treated cells. To confirm cells outside of this population as non-viable, cells were plated and treated for 24 h, washed with PBS and stained for 30 min with two markers of early (Annexin-V) and late (LIVE/DEAD) apoptosis. Effects on viability were measured by the reduction of the percentage of cells included in this viable-population gate with increasing doses of compound tested. Degradation of BTK was calculated based on subtracting background (BG) fluorescence of parental TMD8 signal via (GFP-BG)/(mCherry-BG) of viable cells. Median ratios of three technical (different wells) replicates were used to calculate daily averages. Each compound dose–response was generated via three biological replicates (different days of experiment). Degradation curve parameters (DC50 & Abs. DC50 & max. Deg) were extracted using GraphPad Prism’s 4-parameter logistic curve fitting.

[6] = Viability by FSC/SSC gate (flow cytometry) in TMD8 BTK-GFP/mCh cells; assay type: cell-based, human; parameters: Max dose w/ Gating Viability >25%: unit: µM; conditions: human, TMD8 BTK-GFP/mCh cells, TMD8 BTK-GFP/mCh, 24 h
Protocol: as §3, with “To confirm cells outside of this population as non-viable, cells were plated and treated for 24 h, washed with PBS and stained for 30 min with two markers of early (Annexin-V) and late (LIVE/DEAD) apoptosis.” left out
(§4) The viability window was determined by measuring the GI50 of viability based on the percentage of cells included in the viable gate and comparing it to the DC50 of degradation. The fold-change difference describing this window is [GI50 Viability / DC50 Degradation], where values above 1 indicate a positive (lower DC50 degradation than AC50 viability) window.

TMD8 BTK-GFP/mCh cells = experiment: as above; assay type: cell-based, human; parameters: Max dose w/ Gating Viability >25%: unit: µM; conditions: TMD8 BTK-GFP/mCh, 24 h
Protocol: as §3, with “To confirm cells outside of this population as non-viable, cells were plated and treated for 24 h, washed with PBS and stained for 30 min with two markers of early (Annexin-V) and late (LIVE/DEAD) apoptosis.” left out
as §4

[7] = system: TMD8 WT and TMD8 CRBN resist. cells; experiment: CellTiter-Glo viability, TMD8 WT vs CRBN resist. cells; assay type: cell-based, human; conditions: CellTiter-Glo proliferation
Protocol: TMD8 cells were grown in the presence of a CRBN-BTK PROTAC CBt using a gradual dose increase. Start treatment was 0.1 nM for 6 weeks, followed by 3 weeks at 0.4 nM and another 4 weeks at 10 nM to finally obtain CBt resistant TMD8 cells (TMD8 CRBN resist.).
d) Viability measured by cell titer-Glo for DBt-10 (green) vs (13) (purple) in WT (solid) vs CRBN resist.
(dotted) TMD8 cells. Data represents average ± standard deviation from n=3 replicates.
e) Repeat of the viability measured by cell titer-Glo for DBt-10 (green) vs (13) (purple) in WT (solid) vs
CRBN resist. (dotted) TMD8 cells with adjusted dose response range. Data represents average ±
standard deviation from n=3 replicates.
as §2

T2 sequence (Q06187 2-659 limits assumed): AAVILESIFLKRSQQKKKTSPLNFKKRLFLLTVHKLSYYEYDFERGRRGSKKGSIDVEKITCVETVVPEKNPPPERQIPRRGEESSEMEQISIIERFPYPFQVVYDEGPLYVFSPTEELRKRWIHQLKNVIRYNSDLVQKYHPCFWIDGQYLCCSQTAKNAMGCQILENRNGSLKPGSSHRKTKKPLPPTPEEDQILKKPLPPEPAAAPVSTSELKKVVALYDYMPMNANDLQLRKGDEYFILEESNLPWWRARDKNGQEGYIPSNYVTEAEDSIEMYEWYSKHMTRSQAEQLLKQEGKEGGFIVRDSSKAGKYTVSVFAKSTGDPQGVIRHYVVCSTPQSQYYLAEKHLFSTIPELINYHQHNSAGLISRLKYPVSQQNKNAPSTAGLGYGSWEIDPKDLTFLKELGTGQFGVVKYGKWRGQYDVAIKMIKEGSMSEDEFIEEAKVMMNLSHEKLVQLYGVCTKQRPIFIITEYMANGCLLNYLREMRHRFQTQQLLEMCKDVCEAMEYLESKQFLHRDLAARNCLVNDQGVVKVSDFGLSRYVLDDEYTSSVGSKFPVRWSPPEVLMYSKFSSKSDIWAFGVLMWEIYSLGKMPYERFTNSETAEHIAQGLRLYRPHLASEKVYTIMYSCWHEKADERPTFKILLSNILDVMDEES

BRD9 protein reduction by individual binders (BRD9 [1]): No BRD9 protein reduction
effect of co-treatment on DBr-1 mediated BRD9 degradation (BRD9 [2]): fully rescue the BRD9 degradation
SMILES: COc1cc(-c2cn(C)c(=O)c3cnccc23)c(OC)cc1CN(C)C [BI-9564, reference compound]

SMILES: COc1ccc(C(=O)N2CCC3(CCN(CCc4ccc(-c5cc6c(-c7cc(F)cc(NC(=O)c8ccc(C(C)(C)O)cc8F)c7C)ncnc6[nH]5)cc4)CC3)CC2)cc1N1CCC(=O)NC1=O [CBt, reference compound]
BTK degradation in TMD8 CBt sensitive (WT) vs resistant cells (BTK [3]): BTK degradation only in the WT but not in the CBt-resistant TMD8 cells

maximal observed degradation (BRD7), % in brackets (BRD7; 2 h): 21%
DC50 (BRD7; read-out: rel. DC50 (BRD7), 2 h): 0.137 µM
BRD9 levels in 768-O cells (BRD9 [4]): intrinsic resistance
SMILES: COc1cc(-c2cn(C)c(=O)c3cnccc23)cc(OC)c1CN1CCN(CCCCCOc2cc(-c3scnc3C)ccc2CNC(=O)[C@@H]2C[C@@H](O)CN2C(=O)[C@@H](NC(=O)C2(F)CC2)C(C)(C)C)CC1 [VZ185]

SMILES: CCN(CC)Cc1ccc(-c2cc3c(-c4cc(F)cc(NC(=O)c5ccc(C(C)(C)O)cc5F)c4C)ncnc3[nH]2)cc1 [compound 17, reference compound]
DC50 (BTK [5]): > 25 µM
GI50 at 24 h ([6]; read-out: Abs GI50): 6.82 µM
GI50 at 24 h ([6]; read-out: GI50): 6.75 µM
Max dose w/ Gating Viability >25% (TMD8 BTK-GFP/mCh cells): 5.39
relative potency change between CBt sensitive and resistant TMD8 cells [7]: neither inhibitor showed any relative potency change

SMILES: C=CC(=O)N1CCC[C@@H](n2nc(-c3ccc(Oc4ccccc4)cc3)c3c(N)ncnc32)C1 [ibrutinib]
relative potency change between CBt sensitive and resistant TMD8 cells [7]: neither inhibitor showed any relative potency change
